Here are results for 17 compounds from publication PMC7717712, “The effects of cardiac drugs on human erythrocyte carbonic anhydrase I and II isozymes” (Journal of Enzyme Inhibition and Medicinal Chemistry, 2020).

Format in all cases: biochemical
Assay [1] addresses T1, human carbonic anhydrase I (hCA I) (Homo sapiens, UniProt P00915).
T1 construct: from tissue
Kind of assay: CO2 hydratase activity assay (Maren method), hCA I. As to the method: (§1) Blood samples (25 ml) from healthy human volunteers were collected. They were centrifuged at 1000g for 20 min at 4 °C, and the supernatant was removed. The packed erythrocytes were washed three times with 0.9% NaCl and then were hemolyzed in cold water. The pH of the hemolysate was adjusted to 8.5 with the solid Tris base. The 25-ml hemolysate was applied to an affinity column containing y Sepharose 4B-ethylene diamine-4-isothiocyanato-benzenesulfonamide[14]. CA isozymes were then eluted with 0.1 M NaCl/25 mM Na2HPO4 (pH 6.3) and 0.1 M CH3COONa/0.5 M NaClO4 (pH 5.6), which recovered hCA I and II, respectively.
(§2) CA activity was measured by the Maren method based on the determination of the time required for the pH to decrease from 10.0 to 7.4 due to CO2 hydration. The assay solution was 0.5 M Na2CO3/0.1 M NaHCO3 (pH 10.0), and phenol red was added as the pH indicator. Carbon dioxide-hydratase activity was calculated in enzyme units (EU) with the following equation: t0 – tc/tc, where t0 and tc are the times for the pH change of the nonenzymatic and the enzymatic reactions, respectively.
(§3) The drugs were triturated in a porcelain mortar pestle. Stock solutions of both drugs were prepared in dimethyl sulfoxide (DMSO). Different concentrations of the drugs were added to the enzyme activity determination medium with a total volume of 4.2 ml. The duration (in seconds) of the colour change from red to yellow in solution was measured in a 10-ml glass tube with a diameter of 1 cm. Control cuvette activity in the absence of the inhibitor was set at 100%. All compounds were tested in triplicate at each concentration used. For each inhibitor, an activity %–[inhibitor] graph was drawn (data not shown).

For assay [2], the target named is T1, human carbonic anhydrase I (hCA I). Kind of assay: Esterase activity assay (4-nitrophenyl-acetate), hCA I. The settings on record: esterase method, 4-nitrophenyl-acetate, 348 nm, 25 °C; read-out: IC50 (esterase) hCA I. As to the method:
(§4) Blood samples (25 ml) from healthy human volunteers were collected. They were centrifuged at 1000g for 20 min at 4 °C, and the supernatant was removed. The packed erythrocytes were washed three times with 0.9% NaCl and then were hemolyzed in cold water. The pH of the hemolysate was adjusted to 8.5 with the solid Tris base. The 25-ml hemolysate was applied to an affinity column containing y Sepharose 4B-ethylene diamine-4-isothiocyanato-benzenesulfonamide[14].
(§5) The inhibitory effects of the drugs on enzyme activities were tested under in vitro conditions.

Assay [3] deals with T2, human carbonic anhydrase II (hCA II) (Homo sapiens, UniProt P00918).
T2 construct: from tissue
The experiment in a line: CO2 hydratase activity assay (Maren method), hCA II. As to the method:
as §1, §2, §3

In assay [4] the target is T2, human carbonic anhydrase II (hCA II). Kind of assay: Esterase activity assay (4-nitrophenyl-acetate), hCA II. The settings on record: esterase method, 4-nitrophenyl-acetate, 348 nm, 25 °C; read-out: IC50 (esterase) hCA II. How it is done: as §4, §5
[5] abbreviates: hydratase method, enzyme purified from human erythrocytes, read-out: IC50 (hydratase) hCA I.
Where [6] appears, read: hydratase method, enzyme purified from human erythrocytes, read-out: IC50 (hydratase) hCA II.

Structures can show the parent of a compound that is named as a salt.

T1 sequence (P00915 whole entry): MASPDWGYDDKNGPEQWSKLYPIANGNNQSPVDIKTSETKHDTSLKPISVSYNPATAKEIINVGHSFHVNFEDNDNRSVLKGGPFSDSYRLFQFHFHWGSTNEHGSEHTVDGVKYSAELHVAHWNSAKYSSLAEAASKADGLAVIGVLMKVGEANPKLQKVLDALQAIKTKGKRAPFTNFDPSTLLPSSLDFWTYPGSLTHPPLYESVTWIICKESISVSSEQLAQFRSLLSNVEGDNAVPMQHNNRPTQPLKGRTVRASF

In the case of `CC(=O)Oc1ccccc1C(=O)O` [Acetylsalicylic acid], the results for the IC50 in assay [1] (setting [5]) and in assay [2] were 252 µM and 43 µM, respectively.
For the compound `CCCCc1oc2ccccc2c1C(=O)c1cc(I)c(OCCN(CC)CC)c(I)c1` [Amiodorane hydrochloride], the IC50 in assay [1] (setting [5]) amounted to 389 µM; in assay [3] (setting [6]), 405 µM; in assay [2], 8.47 µM; in assay [4] it was 12.4 µM.
Take `COc1ccc(-n2nc(C(N)=O)c3c2C(=O)N(c2ccc(N4CCCCC4=O)cc2)CC3)cc1` [Apixaban]: the IC50 in assay [1] (setting [5]) was determined as 88.4 µM; in assay [3] (setting [6]), 110 µM; in assay [2], 384 µM; in assay [4], 386 µM.
As for `CC(C)NCC(O)COc1ccc(COCCOC(C)C)cc1` (stereo not drawn) [Bisoprolol hemifumarate], the IC50 in assay [1] (setting [5]) came out at 107 µM; in assay [3] (setting [6]), 221 µM; in assay [2], 156 µM; in assay [4], 244 µM.
In the same order, the values of `CCOc1nc2cccc(C(=O)OC(C)OC(=O)OC3CCCCC3)c2n1Cc1ccc(-c2ccccc2-c2nnn[nH]2)cc1` (stereo not drawn) [Candesartan cilexetil] are 185 µM, 271 µM, 342 µM and 177 µM.
For `C[C@H](CS)C(=O)N1CCC[C@H]1C(=O)O` [Captopril], the IC50 in assay [1] (setting [5]) amounted to 121 µM; in assay [3] (setting [6]) it was 131 µM; in assay [2] it was 1.58 µM; in assay [4] it was 6.25 µM.
In the same order, the values of `COc1ccccc1OCCNCC(O)COc1cccc2[nH]c3ccccc3c12` (stereo not drawn) [Carvedilol] are 61.2 µM, 79 µM, 20.2 µM and 46.4 µM.
For the compound `COC(=O)[C@H](c1ccccc1Cl)N1CCc2sccc2C1` [Clopidogrel], the 50% inhibitory concentration (IC50) in assay [1] (setting [5]) is 250 µM; in assay [3] (setting [6]), 364 µM; in assay [2] it was 94 µM; in assay [4] it was 103 µM.
For `CCCCCCOC(=O)NC(=N)c1ccc(NCc2nc3cc(C(=O)N(CCC(=O)OCC)c4ccccn4)ccc3n2C)cc1` [Dabigatran etexilate] the same measures were 113 µM, 116 µM, 15.3 µM and 15.3 µM.
On to `C[C@H]1O[C@@H](O[C@H]2[C@@H](O)C[C@H](O[C@H]3[C@@H](O)C[C@H](O[C@H]4CC[C@@]5(C)[C@H](CC[C@@H]6[C@@H]5C[C@@H](O)[C@]5(C)[C@@H](C7=CC(=O)OC7)CC[C@]65O)C4)O[C@@H]3C)O[C@@H]2C)C[C@H](O)[C@@H]1O` [Digoxin], for which the IC50 is 74.9 µM in assay [1] (setting [5]), 88 µM in assay [3] (setting [6]), 23.1 µM in assay [2] and 32.8 µM in assay [4].
In the same order, the values of `COc1ccc([C@@H]2Sc3ccccc3N(CCN(C)C)C(=O)[C@@H]2OC(C)=O)cc1` [Diltiazem] are 624 µM, 477 µM, 232 µM and 325 µM.
For `COc1cc2nc(N3CCN(C(=O)C4COc5ccccc5O4)CC3)nc(N)c2cc1OC` (stereo not drawn) [Doxazosin mesylate] the same measures were 228 µM, 215 µM, 303 µM and 417 µM.
On to `CN1CCc2nc(C(=O)N[C@@H]3C[C@@H](C(=O)N(C)C)CC[C@@H]3NC(=O)C(=O)Nc3ccc(Cl)cn3)sc2C1` [Edoxaban], for which the IC50 is 94 µM in assay [1] (setting [5]), 67 µM in assay [3] (setting [6]), 45.5 µM in assay [2] and 34.2 µM in assay [4].
In the case of `O=[N+]([O-])OCC(CO[N+](=O)[O-])O[N+](=O)[O-]` [Glyceryl trinitrate], the 50% inhibitory concentration (IC50) came out at 220 µM in assay [1] and 272 µM in assay [3].
Take `COc1cc2c(cc1OC)CC(=O)N(CCCN(C)C[C@H]1Cc3cc(OC)c(OC)cc31)CC2` [Ivabradine]: the IC50 came to 107 µM in assay [2] and 117 µM in assay [4].
In the case of `CCN(CC)CC(=O)Nc1c(C)cccc1C` [Lidocaine HCl], the figures for the IC50 in assay [1] (setting [5]) and in assay [3] (setting [6]) were 19.6 µM and 2 µM, respectively.
`CC(C)NCC(O)COc1cccc2ccccc12` (stereo not drawn) [Propranolol]: the IC50 in assay [1] (setting [5]) was 1.77 µM.

What is called IC50 is the concentration that gives 50% inhibition.
